These are literature values, as cited in patent US20090233947A1, “2,3-Substituted fused bicyclic pyrimidin-4(3H)-ones which modulating the function of the vanilloid -1 receptor (VR1)” (priority 2005, published 2009).

This data set has as its target VR1 (Rattus norvegicus, UniProt O35433). To be noted: Wahl et al., Mol. Pharmacol., 59:9, 2001.

SMILES strings stand for the structures.

Sequence of VR1 (O35433 whole entry): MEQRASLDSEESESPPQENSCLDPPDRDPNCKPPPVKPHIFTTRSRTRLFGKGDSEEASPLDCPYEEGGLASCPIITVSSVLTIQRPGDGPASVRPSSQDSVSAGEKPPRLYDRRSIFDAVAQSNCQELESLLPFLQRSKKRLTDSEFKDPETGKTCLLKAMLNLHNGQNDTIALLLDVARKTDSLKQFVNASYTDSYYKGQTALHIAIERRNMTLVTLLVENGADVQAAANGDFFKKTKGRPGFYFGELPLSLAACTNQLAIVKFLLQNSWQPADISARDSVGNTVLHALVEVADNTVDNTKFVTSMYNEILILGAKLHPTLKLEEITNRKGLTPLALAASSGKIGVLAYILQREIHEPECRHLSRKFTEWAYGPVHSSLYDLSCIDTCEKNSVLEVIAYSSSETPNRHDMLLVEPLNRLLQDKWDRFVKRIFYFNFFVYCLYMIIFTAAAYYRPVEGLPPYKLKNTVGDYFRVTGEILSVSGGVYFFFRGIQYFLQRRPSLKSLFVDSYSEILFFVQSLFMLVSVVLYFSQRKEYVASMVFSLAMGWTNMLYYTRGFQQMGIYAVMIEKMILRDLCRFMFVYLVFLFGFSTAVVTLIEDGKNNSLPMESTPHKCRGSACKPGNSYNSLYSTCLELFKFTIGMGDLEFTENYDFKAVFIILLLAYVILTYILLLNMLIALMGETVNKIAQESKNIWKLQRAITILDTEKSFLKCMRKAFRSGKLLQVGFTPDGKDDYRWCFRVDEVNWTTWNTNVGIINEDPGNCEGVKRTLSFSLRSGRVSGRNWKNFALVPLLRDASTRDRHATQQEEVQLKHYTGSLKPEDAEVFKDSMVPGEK

For `C=C(C)[C@]12C[C@@H](C)[C@@]34O[C@](Cc5ccccc5)(O[C@@H]1[C@@H]3C=C(COC(=O)Cc1cc(I)c(O)c(OC)c1)C[C@]1(O)C(=O)C(C)=C[C@@H]41)O2` [iodo-resiniferatoxin], the “antagonist of VR1” value is “nanomolar antagonist”.
